Measurements as given in patent US20020010205A1, “N-linked sulfone of heterocyclic thioester hair growth compositions and uses” (GPI NIL HOLDINGS, INC., priority 1998, published 2002).
“Also recorded” adds a separate entry of the source.

Target: FKBP12 (Homo sapiens, UniProt P62942)
Test: Ki test procedure: inhibition of peptidyl-prolyl isomerase (rotamase) activity, chymotrypsin-coupled assay
Type: biochemical
Settings: apparent Ki, FKBP rotamase inhibition
From the text: The inhibition of the prolyl peptidyl cis-trans isomerase activity of FKBP may be measured as an indicator of this affinity.
Inhibition of the peptidyl-prolyl isomerase (rotamase) activity of the compounds used in the inventive methods and pharmaceutical compositions can be evaluated by known methods described in the literature (Harding et al., Nature, 1989, 341:758-760; Holt et al. J. Am. Chem. Soc., 115:9923-9938). These values are obtained as apparent Ki's and are presented for representative compounds in TABLE I.
The cis-trans isomerization of an alanine-proline bond in a model substrate, N-succinyl-Ala-Ala-Pro-Phe-p-nitroanilide, is monitored spectrophotometrically in a chymotrypsin-coupled assay, which releases para-nitroanilide from the trans form of the substrate. The inhibition of this reaction caused by the addition of different concentrations of inhibitor is determined, and the data is analyzed as a change in first-order rate constant as a function of inhibitor concentration to yield the apparent Ki values.
In a plastic cuvette are added 950 Ml of ice cold assay buffer (25 mM HEPES, pH 7.8, 100 mM NaCl), […] of FKBP (2.5 mM in 10 mM Tris-Cl pH 7.5, 100 mM NaCl, 1 mM dithiothreitol), […] of chymotrypsin (50 mg/ml in 1 mM HCl) and […] of test compound at various concentrations in dimethyl sulfoxide. The reaction is initiated by the addition of 5 mL of substrate (succinyl-Ala-Phe-Pro-Phe-para-nitroanilide, 5 mg/mL in 2.35 mM LiCl in trifluoroethanol).
The absorbance at 390 nm versus time is monitored for 90 seconds using a spectrophotometer and the rate constants are determined from the absorbance versus time data files.

Chain of FKBP12 (P62942 whole entry, species assumed): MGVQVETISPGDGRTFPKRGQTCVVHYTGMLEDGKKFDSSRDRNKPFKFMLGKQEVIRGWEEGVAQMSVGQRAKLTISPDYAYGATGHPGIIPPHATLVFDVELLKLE

**Q.** For `O=C(SCCc1ccccc1)C1CCCN1S(=O)(=O)c1ccccc1` (stereo not shown) [Compound 1], which Ki is on record?
**A.** 1 to 50 nM

**Q.** With `O=C(SCCc1ccccc1)C1CCCN1S(=O)(=O)Cc1ccccc1` (stereo not shown) [Compound 2] as the compound, how does the Ki read?
**A.** 51 to 200 nM

**Q.** Which Ki does the source give for `Cc1ccc(S(=O)(=O)N2CCCC2C(=O)SCCc2ccccc2)cc1` (stereo not shown) [Compound 3] here?
**A.** 51 to 200 nM

**Q.** Which Ki does the source give for `COc1ccc(CCCSC(=O)C2CCCN2S(=O)(=O)c2ccccc2)cc1` [Compound 4, 3-(para-Methoxyphenyl)-1-propylmercaptyl(2S)-N-(benzenesulfonyl)pyrrolidine-2-carboxylate] here?
**A.** 51 to 200 nM

**Q.** Which Ki does the source give for `COc1ccc(CCCSC(=O)C2CCCN2S(=O)(=O)Cc2ccccc2)cc1` [Compound 5, 3-(para-Methoxyphenyl)-1-propylmercaptyl (2S)-N-(α-toluenesulfonyl)pyrrolidine-2-carboxylate] here?
**A.** 51 to 200 nM

**Q.** With `COc1ccc(CCCSC(=O)C2CCCN2S(=O)(=O)c2ccc(C)cc2)cc1` (stereo not shown) [Compound 6] as the compound, how does the Ki read?
**A.** 201 to 500 nM

**Q.** For `O=C(SCCC(c1ccccc1)c1ccccc1)C1CCCN1S(=O)(=O)c1ccccc1` (stereo not shown) [Compound 7], which Ki is on record?
**A.** 51 to 200 nM

**Q.** For `O=C(SCCC(c1ccccc1)c1ccccc1)C1CCCN1S(=O)(=O)Cc1ccccc1` (stereo not shown) [Compound 8], which Ki is on record?
**A.** 1 to 50 nM

**Q.** Which Ki does the source give for `Cc1ccc(S(=O)(=O)N2CCCC2C(=O)SCCC(c2ccccc2)c2ccccc2)cc1` (stereo not shown) [Compound 9] here?
**A.** 1 to 50 nM

**Q.** With `O=C(SCCCCc1ccccc1)C1CCCCN1S(=O)(=O)c1ccccc1` (stereo not shown) [Compound 10] as the compound, how does the Ki read?
**A.** 1 to 50 nM

**Q.** Which Ki does the source give for `O=C(SCCCCc1ccccc1)C1CCCCN1S(=O)(=O)Cc1ccccc1` (stereo not shown) [Compound 11] here?
**A.** 51 to 200 nM

**Q.** Which Ki does the source give for `Cc1ccc(S(=O)(=O)N2CCCCC2C(=O)SCCCCc2ccccc2)cc1` (stereo not shown) [Compound 12] here?
**A.** 1 to 50 nM

**Q.** For `COc1cc(S(=O)(=O)N2CCCCC2C(=O)SCCCCc2ccccc2)cc(OC)c1OC` (stereo not shown) [Compound 13], which Ki is on record?
**A.** 1 to 50 nM

**Q.** For `O=C(SCCCCc1ccccc1)C1CCCCN1S(=O)(=O)C1CCCCC1` (stereo not shown) [Compound 14], which Ki is on record?
**A.** 1 to 50 nM

**Q.** With `O=C(SC(CCCc1ccccc1)CCCc1ccccc1)C1CCCCN1S(=O)(=O)c1ccccc1` (stereo not shown) [Compound 15] as the compound, how does the Ki read?
**A.** 1 to 50 nM

**Q.** Which Ki does the source give for `O=C(SC(CCCc1ccccc1)CCCc1ccccc1)C1CCCCN1S(=O)(=O)Cc1ccccc1` (stereo not shown) [Compound 16] here?
**A.** 51 to 200 nM

System: C57 black 6 mice
Test: In vivo hair generation test, Experiment A (shaved C57 black 6 mice, topical)
Settings: 30 μM topical in 20% propylene glycol, 3 applications over 5 days, after six weeks
From the text: Care was taken not to nick or cause abrasion to the underlaying dermal layers. The animals were in anagen growth phase, as indicated by the pinkish color of the skin. […] Hair growth was quantitated by the percent of shaved area covered by new hair growth during this time period.

**Q.** With `CCC(C)(C)C(=O)C(=O)N1CCC[C@H]1C(=O)OCCCc1cccnc1` [GPI 1046, 3-(3-pyridyl)-1-propyl (2s)-1-(3,3-dimethyl-1,2-dioxopentyl)-2-pyrrolidinecarboxylate] as the compound, how does the “hair regrowth in shaved area” value read?
**A.** essentially complete hair regrowth; also recorded: essentially, complete hair regrowth

System: C57 black 6 mice
Test: In vivo hair generation test, Experiment B (shaved C57 Black 6 mice, topical, relative hair growth index)
Settings: one micromole per milliliter topical, three times per week, 14 days after initiation of treatment
Protocol: Care was taken not to nick or cause abrasion to the underlying dermal layers. The animals were in anagen growth phase when shaved. […] The animals were treated three times per week, and hair growth was evaluated 14 days after initiation of treatment.

**Q.** Which “hair growth (relative hair growth index, FIG. 5)” value does the source give for `O=C(SCCCc1ccccc1)[C@@H]1CCCN1S(=O)(=O)Cc1ccccc1` [GPI 1312] here?
**A.** dramatic hair growth

System: not given
Test: not given
Settings: topical, but not oral, application; cited from earlier work

**Q.** With `C=CC[C@@H]1/C=C(\C)C[C@H](C)C[C@H](OC)[C@H]2O[C@@](O)(C(=O)C(=O)N3CCCC[C@H]3C(=O)O[C@H](/C(C)=C/[C@@H]3CC[C@@H](O)[C@H](OC)C3)[C@H](C)[C@@H](O)CC1=O)[C@H](C)C[C@@H]2OC` [FK506] as the compound, how does the “stimulation of hair growth” value read?
**A.** stimulates hair growth in a dose-dependent manner
